Assays:
[1] = system: Her2 Exon 20 InsYVMA Ba/F3; test: Her2 Exon 20 InsYVMA Ba/F3 CellTiter-Glo assay; assay type: cell-based; conditions: Mus musculus, BaF3; 72 h incubation; read-out: Her2 Exon 20 InsYVMA Ba/F3 CTG IC50
Description: (§1) The CellTiter-Glo Luminescent Cell Viability Assay (Promega) is a homogeneous method of determining the number of viable cells in culture. It is based on quantification of ATP, indicating the presence of metabolically active cells. Cells are seeded on day 1 at cell numbers that assure assay linearity and optimal signal intensity. After incubation for 24h in humidified chambers at 37°C and 5% CO2, compounds in DMSO are added at different concentrations. Cells are further incubated for 72 h at 37°C and 5% CO2. Cells treated with the compound vehicle DMSO are used as positive controls and cells treated with 10 µM Staurosporine serve as negative controls. At day 5 the CellTiter Glo Reagent is prepared according to the instructions of the kit (Promega Inc.): Reagent is mixed 1:1 with cell culture medium. Thereon, mixture and assay plates are equilibrated at room temperature for 20 min. Equal volumes of the reagent-medium-mixture is added to the volume of culture medium present in each well. The plates are mixed at ∼200 rpm for 2 minutes on an orbital shaker. The microplates are then incubated at room temperature for 10 minutes for stabilization of the luminescent signal. Following incubation the luminescence is recorded on a Victor microplate reader (Perkin Elmer) using a 200 ms integration time. The data is then analyzed with Excel using the XLFIT Plugin (dose response Fit 205) for IC50-determination. As quality control the Z'-factor is calculated from 16 positive and negative control values. Only assay results showing a Z'-factor ≥ 0.5 are used for further analysis.

[2] = system: EGFR vIII Ba/F3; test: EGFR vIII Ba/F3 CellTiter-Glo assay; assay type: cell-based; conditions: Mus musculus, BaF3; 72 h incubation; read-out: EGFR vIII Ba/F3 CTG IC50
Description: as §1

[3] = system: Cuto-17; test: Cuto-17 CellTiter-Glo assay; assay type: cell-based; conditions: CUTO17; 72 h incubation; read-out: Cuto-17 CTG IC50
Description: as §1

[4] = system: H1975; test: H1975 CellTiter-Glo assay; assay type: cell-based; conditions: Homo sapiens, NCI-H1975; 72 h incubation; read-out: H1975 CTG IC50
Description: as §1

[5] = biological target: EGFR wt (Homo sapiens, UniProt P00533); test: EGFR wt Lance assay; assay type: biochemical
[6] = biological target: EGFR T790M L858R (Homo sapiens, UniProt P00533, L858R/T790M); test: EGFR T790ML858R Lance assay; assay type: biochemical
[7] = system: EGFR Exon 20 InsNPH Ba/F3; test: EGFR Exon 20 InsNPH Ba/F3 CellTiter-Glo assay; assay type: cell-based; conditions: Mus musculus, BaF3; 72 h incubation; read-out: EGFR Exon 20 InsNPH Ba/F3 CTG IC50
Description: as §1

[8] = system: A431; test: A431 CellTiter-Glo assay; assay type: cell-based; conditions: Homo sapiens, A-431; 72 h incubation; read-out: A431 CTG IC50
Description: as §1

[9] = biological target: T1, HER2 INS YVMA (Homo sapiens, UniProt P04626, INS775YVMA); test: Her2 Exon 20 InsYVMA Lance kinase activity assay; assay type: biochemical; conditions: 1 h incubation, 1,6 µM ATP
T1 construct: purchased DPF
Description: This protocol describes how the Lance Kinase Activity Assay was performed to determine IC50 values of compounds of general formula (I) against HER2 INS YVMA. The principle behind this enzymatic assay is based upon the phosphorylation of the Ulight-peptide substrate. It is detected by using a specific EU-labeled anti-phospho peptide antibody. The binding of the Eu labeled anti-phospho peptide antibody to the phosphorylated ULight labeled peptide gives rise to a FRET-signal.
Binding of an inhibitor to the kinase prevents phosphorylation of the Ulight-substrate, resulting in a loss of FRET. In table 2 is summarized the relevant information for the LANCE assay. Table 2: Reagents, stock concentrations and final assay concentrations for Her2 INS YVMA.
The compounds of general formula (I) summarized in Table 3 were serial diluted from a 10 mM DMSO stock solution 1:3 over 8 steps in a total volume of 20 µl.
For every sample, 8 µl of kinase-substrate mix was transferred into a suitable assay plate (e.g. Corning #3673). Compound was added via pintool transfer (10nl/well) using a Biomek FX robot (BeckmanCoulter). Reaction was started by addition of 2µl ATP working solution and mixed using variomag teleshaker (Thermo Fischer Scientific). After 1 h incubation at room temperature the reaction was stopped with 10µl detection mix containing the Eu-labeled phosphospecific antibody and 10mM EDTA. After a second incubation period of 1 h at room temperature the FRET signal was measured at 340 nm excitation, 665 nm and 615 nm emission (for the ULight-substrate and Eu-AB, respectively) with an Envision spectrophotometer (Perkin Elmer, Waltham, MA, USA) with 50 µs delay and 300 µs integration time. IC50 values were determined from the sigmoidal dose response curves with the software Quattro Workflow (Quattro GmbH, Munich, Germany).

[10] = biological target: EGFR L858R (Homo sapiens, UniProt P00533, L858R); test: EGFR L858R Lance assay; assay type: biochemical
[11] = biological target: EGFR (del746-750) (Homo sapiens, UniProt P00533, DEL746-750); test: EGFR (del746-750) Lance assay; assay type: biochemical
[12] = system: EGFR L858R T790M Ba/F3; test: EGFR L858RT790M Ba/F3 CellTiter-Glo assay; assay type: cell-based; conditions: Mus musculus, BaF3; 72 h incubation; read-out: EGFR L858R T790M Ba/F3 CTG IC50
Description: as §1, with “The microplates are then incubated at room temperature for 10 minutes for stabilization of the luminescent signal.” left out, “Only assay results showing a Z'-factor ≥ 0.5 are used for further analysis.” left out

[13] = system: EGFR L858R Ba/F3; test: EGFR L858R Ba/F3 CellTiter-Glo assay; assay type: cell-based; conditions: Mus musculus, BaF3; 72 h incubation; read-out: EGFR L858R Ba/F3 CTG IC50
Description: as §1, with “The microplates are then incubated at room temperature for 10 minutes for stabilization of the luminescent signal.” left out, “Only assay results showing a Z'-factor ≥ 0.5 are used for further analysis.” left out

EGFR T790M L858R, sequence (P00533 25-1210 T790M/L858R): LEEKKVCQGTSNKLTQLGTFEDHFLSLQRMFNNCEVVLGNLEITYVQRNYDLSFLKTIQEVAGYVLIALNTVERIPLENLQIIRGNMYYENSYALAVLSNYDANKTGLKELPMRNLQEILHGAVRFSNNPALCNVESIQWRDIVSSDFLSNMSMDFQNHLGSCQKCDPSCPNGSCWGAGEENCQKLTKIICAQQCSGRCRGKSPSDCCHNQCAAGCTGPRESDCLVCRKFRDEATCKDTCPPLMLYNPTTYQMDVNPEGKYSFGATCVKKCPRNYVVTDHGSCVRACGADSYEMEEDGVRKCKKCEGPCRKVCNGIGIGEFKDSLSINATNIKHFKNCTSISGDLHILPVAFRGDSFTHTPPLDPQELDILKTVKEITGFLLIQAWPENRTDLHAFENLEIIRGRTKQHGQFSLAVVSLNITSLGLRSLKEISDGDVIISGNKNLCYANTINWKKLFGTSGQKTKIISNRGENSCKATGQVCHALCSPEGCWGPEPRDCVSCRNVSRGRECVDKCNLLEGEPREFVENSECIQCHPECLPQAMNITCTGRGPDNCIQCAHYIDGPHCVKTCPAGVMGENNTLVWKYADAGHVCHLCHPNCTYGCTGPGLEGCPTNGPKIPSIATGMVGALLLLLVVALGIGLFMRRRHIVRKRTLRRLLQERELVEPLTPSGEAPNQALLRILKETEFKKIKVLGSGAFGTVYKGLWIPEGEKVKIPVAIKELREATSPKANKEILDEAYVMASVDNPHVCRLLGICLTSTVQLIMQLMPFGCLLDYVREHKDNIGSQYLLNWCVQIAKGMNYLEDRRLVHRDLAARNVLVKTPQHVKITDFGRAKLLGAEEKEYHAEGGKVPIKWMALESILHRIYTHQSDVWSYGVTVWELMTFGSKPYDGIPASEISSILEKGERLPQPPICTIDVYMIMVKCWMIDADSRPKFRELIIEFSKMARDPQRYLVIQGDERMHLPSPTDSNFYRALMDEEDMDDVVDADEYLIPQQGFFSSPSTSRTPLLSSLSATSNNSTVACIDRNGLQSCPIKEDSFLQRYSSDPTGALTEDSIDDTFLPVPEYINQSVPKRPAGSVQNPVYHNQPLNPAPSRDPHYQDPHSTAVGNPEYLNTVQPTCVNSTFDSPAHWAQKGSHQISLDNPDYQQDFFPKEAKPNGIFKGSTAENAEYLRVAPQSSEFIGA
EGFR wt, sequence (P00533 25-1210): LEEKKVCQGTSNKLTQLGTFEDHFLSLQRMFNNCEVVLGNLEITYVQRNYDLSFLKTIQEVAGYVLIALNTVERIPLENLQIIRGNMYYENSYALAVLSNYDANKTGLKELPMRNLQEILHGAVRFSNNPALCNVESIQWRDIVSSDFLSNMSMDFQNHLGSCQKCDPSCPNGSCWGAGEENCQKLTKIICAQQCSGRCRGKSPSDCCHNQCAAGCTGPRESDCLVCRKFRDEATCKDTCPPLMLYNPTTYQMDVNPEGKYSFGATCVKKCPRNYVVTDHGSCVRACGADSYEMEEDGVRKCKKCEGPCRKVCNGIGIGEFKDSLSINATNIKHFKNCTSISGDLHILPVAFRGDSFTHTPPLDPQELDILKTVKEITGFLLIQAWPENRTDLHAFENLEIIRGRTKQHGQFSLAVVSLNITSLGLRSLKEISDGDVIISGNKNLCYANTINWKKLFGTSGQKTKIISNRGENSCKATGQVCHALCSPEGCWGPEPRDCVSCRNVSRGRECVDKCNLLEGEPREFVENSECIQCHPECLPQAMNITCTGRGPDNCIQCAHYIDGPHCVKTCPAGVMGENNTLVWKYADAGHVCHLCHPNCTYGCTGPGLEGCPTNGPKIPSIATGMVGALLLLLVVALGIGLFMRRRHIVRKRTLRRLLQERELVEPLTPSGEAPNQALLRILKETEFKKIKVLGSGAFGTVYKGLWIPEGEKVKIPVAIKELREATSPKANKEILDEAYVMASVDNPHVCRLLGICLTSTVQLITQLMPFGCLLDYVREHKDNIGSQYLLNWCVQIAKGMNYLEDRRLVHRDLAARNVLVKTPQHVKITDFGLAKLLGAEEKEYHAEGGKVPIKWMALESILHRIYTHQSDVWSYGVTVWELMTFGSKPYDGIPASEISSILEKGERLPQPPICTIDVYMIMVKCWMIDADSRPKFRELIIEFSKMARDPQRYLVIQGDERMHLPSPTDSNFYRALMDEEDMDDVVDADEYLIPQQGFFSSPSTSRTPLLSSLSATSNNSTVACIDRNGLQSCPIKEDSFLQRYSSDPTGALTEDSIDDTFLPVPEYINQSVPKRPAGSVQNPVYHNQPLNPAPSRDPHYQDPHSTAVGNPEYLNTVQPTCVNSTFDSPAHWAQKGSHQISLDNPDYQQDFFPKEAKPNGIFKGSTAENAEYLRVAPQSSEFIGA
T1 sequence (P04626 with tags, fused parts or gaps INS775YVMA): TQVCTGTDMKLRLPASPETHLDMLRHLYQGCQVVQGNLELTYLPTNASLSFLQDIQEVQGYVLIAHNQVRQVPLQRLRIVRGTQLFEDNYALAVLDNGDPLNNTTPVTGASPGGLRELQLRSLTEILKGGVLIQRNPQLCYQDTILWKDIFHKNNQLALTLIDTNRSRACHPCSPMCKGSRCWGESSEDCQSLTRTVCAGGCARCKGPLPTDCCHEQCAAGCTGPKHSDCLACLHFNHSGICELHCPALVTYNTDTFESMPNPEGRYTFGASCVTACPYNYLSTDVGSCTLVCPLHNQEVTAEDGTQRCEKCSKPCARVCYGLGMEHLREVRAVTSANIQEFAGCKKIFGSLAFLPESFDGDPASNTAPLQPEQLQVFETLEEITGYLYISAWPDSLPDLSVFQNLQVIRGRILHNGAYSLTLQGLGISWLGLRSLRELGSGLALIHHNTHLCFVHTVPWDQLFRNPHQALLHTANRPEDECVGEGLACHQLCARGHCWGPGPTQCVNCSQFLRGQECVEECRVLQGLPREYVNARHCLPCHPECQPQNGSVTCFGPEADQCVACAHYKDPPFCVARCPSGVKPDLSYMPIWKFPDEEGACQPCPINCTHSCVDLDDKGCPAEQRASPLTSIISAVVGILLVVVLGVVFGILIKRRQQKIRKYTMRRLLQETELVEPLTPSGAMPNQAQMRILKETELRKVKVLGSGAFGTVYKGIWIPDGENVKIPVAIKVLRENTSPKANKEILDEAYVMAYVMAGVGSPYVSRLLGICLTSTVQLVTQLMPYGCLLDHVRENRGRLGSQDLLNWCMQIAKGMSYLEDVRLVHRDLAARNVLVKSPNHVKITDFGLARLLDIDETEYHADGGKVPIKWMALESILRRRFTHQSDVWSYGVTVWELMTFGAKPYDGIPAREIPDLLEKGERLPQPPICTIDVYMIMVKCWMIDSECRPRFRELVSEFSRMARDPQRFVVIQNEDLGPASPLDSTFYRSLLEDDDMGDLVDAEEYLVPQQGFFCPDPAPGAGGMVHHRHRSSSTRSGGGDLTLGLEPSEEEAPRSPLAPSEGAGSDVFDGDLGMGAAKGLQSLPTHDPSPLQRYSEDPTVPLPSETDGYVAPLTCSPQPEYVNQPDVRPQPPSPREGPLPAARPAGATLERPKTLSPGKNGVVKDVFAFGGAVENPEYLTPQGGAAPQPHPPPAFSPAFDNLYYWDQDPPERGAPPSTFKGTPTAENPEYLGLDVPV
EGFR (del746-750), sequence (P00533 with tags, fused parts or gaps DEL746-750): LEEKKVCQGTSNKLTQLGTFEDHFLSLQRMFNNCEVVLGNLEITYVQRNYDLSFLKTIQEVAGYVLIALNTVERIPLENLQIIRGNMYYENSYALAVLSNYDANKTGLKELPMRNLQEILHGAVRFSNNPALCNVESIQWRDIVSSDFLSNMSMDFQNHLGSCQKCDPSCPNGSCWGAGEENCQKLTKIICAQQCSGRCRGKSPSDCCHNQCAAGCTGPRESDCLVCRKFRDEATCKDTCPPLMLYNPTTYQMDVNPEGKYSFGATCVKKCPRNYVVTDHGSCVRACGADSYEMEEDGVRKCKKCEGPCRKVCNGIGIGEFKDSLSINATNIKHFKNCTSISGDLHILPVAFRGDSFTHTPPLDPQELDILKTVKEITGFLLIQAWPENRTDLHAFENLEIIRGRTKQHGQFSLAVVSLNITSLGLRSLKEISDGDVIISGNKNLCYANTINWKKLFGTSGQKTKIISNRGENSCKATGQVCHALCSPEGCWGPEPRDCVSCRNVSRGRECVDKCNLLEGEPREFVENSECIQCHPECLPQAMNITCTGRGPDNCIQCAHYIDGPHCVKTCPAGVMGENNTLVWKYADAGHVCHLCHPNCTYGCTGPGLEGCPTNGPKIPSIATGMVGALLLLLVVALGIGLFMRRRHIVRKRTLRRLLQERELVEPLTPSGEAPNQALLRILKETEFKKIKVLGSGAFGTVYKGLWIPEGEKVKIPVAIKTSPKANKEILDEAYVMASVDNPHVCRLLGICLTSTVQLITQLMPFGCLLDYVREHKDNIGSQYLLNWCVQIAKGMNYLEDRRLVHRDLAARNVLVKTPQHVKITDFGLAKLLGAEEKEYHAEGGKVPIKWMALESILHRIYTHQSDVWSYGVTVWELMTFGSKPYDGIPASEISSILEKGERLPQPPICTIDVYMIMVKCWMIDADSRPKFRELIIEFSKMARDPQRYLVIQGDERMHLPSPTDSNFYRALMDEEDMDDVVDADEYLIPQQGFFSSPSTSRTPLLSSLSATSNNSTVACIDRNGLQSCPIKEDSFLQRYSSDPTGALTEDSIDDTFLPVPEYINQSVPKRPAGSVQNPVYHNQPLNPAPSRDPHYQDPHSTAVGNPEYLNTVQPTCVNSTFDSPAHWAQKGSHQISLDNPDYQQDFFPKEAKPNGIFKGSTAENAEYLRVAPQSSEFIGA

SMILES	IC50 [1] [nM]	IC50 [2] [nM]	IC50 [4] [nM]	IC50 [5] [nM]	IC50 [6] [nM]	IC50 [7] [nM]	IC50 [8] [nM]	IC50 [9] [nM]	IC50 [10] [nM]	IC50 [11] [nM]	IC50 [12] [nM]	IC50 [13] [nM]	IC50 [3] [nM]
C=CC(=O)Nc1cc(-c2c(-c3ccc(N4CCN(C)CC4)cc3)[nH]c3ncc(-c4cnn(CCOC)c4)cc23)ccc1C [Example 7, N-(5-(5-(1-(2-methoxyethyl)-1H-pyrazol-4-yl)-2-(4-(4-methylpiperazin-1-yl)phenyl)-1H-pyrrolo[2,3-b]pyridin-3-yl)-2-methylphenyl)acrylamide]	100 to 500	≤ 50	100 to 500	≤ 50	≤ 50	≤ 50	1000 to 10000	≤ 50					100 to 500
C=CC(=O)Nc1cc(-c2c(-c3ccc(N4CCN(C)CC4)cc3)[nH]c3ncc(-c4cn(C)nc4C)cc23)ccc1C [Example 5, N-(5-(5-(1,3-dimethyl-1H-pyrazol-4-yl)-2-(4-(4-methylpiperazin-1-yl)phenyl)-1H-pyrrolo[2,3-b]pyridin-3-yl)-2-methylphenyl)acrylamide]	100 to 500	50 to 100	500 to 1000	≤ 50	≤ 50	≤ 50	1000 to 10000	≤ 50	≤ 50	≤ 50			100 to 500
C=CC(=O)Nc1cc(-c2c(-c3ccc(N4CCN(C)CC4)cc3)[nH]c3ncc(-c4ccnn4C)cc23)ccc1C [Example 2, N-(2-methyl-5-(5-(1-methyl-1H-pyrazol-5-yl)-2-(4-(4-methylpiperazin-1-yl)phenyl)-1H-pyrrolo[2,3-b]pyridin-3-yl)phenyl)acrylamide]	100 to 500	≤ 50	100 to 500	≤ 50	≤ 50	50 to 100	1000 to 10000	≤ 50					100 to 500
C=CC(=O)Nc1cc(-c2c(-c3ccc(N4CCN(C)CC4)cc3)[nH]c3ncc(-c4cnn(C)c4)cc23)ccc1C [Example 1, N-(2-methyl-5-(5-(1-methyl-1H-pyrazol-4-yl)-2-(4-(4-methylpiperazin-1-yl)phenyl)-1H-pyrrolo[2,3-b]pyridin-3-yl)phenyl)acrylamide]	100 to 500	≤ 50	100 to 500	≤ 50	≤ 50	≤ 50	1000 to 10000	≤ 50					100 to 500

The next lines start with results.

IC50 [1] [nM]	IC50 [2] [nM]	IC50 [4] [nM]	IC50 [5] [nM]	IC50 [6] [nM]	IC50 [7] [nM]	IC50 [8] [nM]	IC50 [9] [nM]	IC50 [10] [nM]	IC50 [11] [nM]	IC50 [12] [nM]	IC50 [13] [nM]	SMILES	IC50 [3] [nM]
≤ 50	≤ 50	50 to 100	≤ 50	≤ 50	≤ 50	500 to 1000	≤ 50					C=CC(=O)Nc1cc(-c2c(-c3ccc(N4CCN(C)CC4)cc3)[nH]c3ncc(-c4cnn(C)c4C)cc23)ccc1C [Example 3, N-(5-(5-(1,5-dimethyl-1H-pyrazol-4-yl)-2-(4-(4-methylpiperazin-1-yl)phenyl)-1H-pyrrolo[2,3-b]pyridin-3-yl)-2-methylphenyl)acrylamide]	≤ 50
50 to 100	≤ 50	100 to 500	≤ 50	≤ 50	≤ 50	500 to 1000	≤ 50					C=CC(=O)Nc1cc(-c2c(-c3ccc(N4CCN(C)CC4)cc3)[nH]c3ncc(-c4cnn(CC)c4)cc23)ccc1C [Example 4, N-(5-(5-(1-ethyl-1H-pyrazol-4-yl)-2-(4-(4-methylpiperazin-1-yl)phenyl)-1 H-pyrrolo[2,3-b]pyridin-3-yl)-2-methylphenyl)acrylamide]	100 to 500
≤ 50	≤ 50	100 to 500	≤ 50	≤ 50	≤ 50	1000 to 10000	≤ 50	≤ 50	≤ 50	≤ 50	≤ 50	C=CC(=O)Nc1cc(-c2c(-c3ccc(N4CCN(C)CC4)cc3)[nH]c3ncc(-c4cnn(C5CC5)c4)cc23)ccc1C [Example 6, N-(5-(5-(1-cyclopropyl-1H-pyrazol-4-yl)-2-(4-(4-methylpiperazin-1-yl)phenyl)-1H-pyrrolo[2,3-b]pyridin-3-yl)-2-methylphenyl)acrylamide]	100 to 500

From EP3868760A1, “2,3,5-SUBSTITUTED PYRROLO[2,3-B]PYRIDINES AS ERBB MODULATORS USEFUL FOR TREATING CANCER” (PearlRiver Bio GmbH, priority 2020, dated 2021)
